Test results: patent US11999727B2 (Tango Therapeutics, Inc., priority 2020, dated 2024)
Where two headings read alike, the source gives them in different places.

Assays:
[1] = test system: HAP1 MTAP-deleted cell line; experiment: SDMA in-cell western assay, HAP1 MTAP-deleted; format: cell-based; details: for MTAP intact/deleted ratio: IC50 ratio HAP1 MTAP-intact / HAP1 MTAP-deleted
How it was run: (§1)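 Isogenic HAP1 pair: the MTAP-intact line expresses endogenous MTAP, and the deleted line is MTAP-null. Symmetric dimethylarginine was detected by in-cell western and IC50 values derived for each line.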

PRMT5 [2] = biological target: T1, PRMT5 (Homo sapiens, UniProt O14744); experiment: PRMT5 biochemical IC50 assay with no cofactor; details: PRMT5, no cofactor; read-out: No Cofactor/rel IC50
T1 construct: purchased Viva (custom protein)
T1 sequence (O14744 whole entry): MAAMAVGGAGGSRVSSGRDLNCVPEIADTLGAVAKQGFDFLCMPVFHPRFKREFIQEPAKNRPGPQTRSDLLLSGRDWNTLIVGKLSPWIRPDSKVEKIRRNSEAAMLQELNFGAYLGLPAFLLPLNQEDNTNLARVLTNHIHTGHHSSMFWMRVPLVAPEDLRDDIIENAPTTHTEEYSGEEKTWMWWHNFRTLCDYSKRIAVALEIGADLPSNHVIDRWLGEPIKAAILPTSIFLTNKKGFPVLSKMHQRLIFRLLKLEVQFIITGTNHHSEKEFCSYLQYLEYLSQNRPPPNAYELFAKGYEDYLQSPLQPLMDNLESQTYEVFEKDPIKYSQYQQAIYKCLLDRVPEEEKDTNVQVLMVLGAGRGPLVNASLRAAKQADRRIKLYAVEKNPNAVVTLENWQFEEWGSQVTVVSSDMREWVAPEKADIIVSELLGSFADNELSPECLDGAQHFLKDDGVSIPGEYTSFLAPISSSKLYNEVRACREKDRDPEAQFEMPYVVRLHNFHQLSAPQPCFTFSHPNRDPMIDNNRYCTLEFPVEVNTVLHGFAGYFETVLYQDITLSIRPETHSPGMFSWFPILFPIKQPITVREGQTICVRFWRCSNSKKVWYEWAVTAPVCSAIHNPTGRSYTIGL
T1 sequence (Q9BQA1 whole entry partner): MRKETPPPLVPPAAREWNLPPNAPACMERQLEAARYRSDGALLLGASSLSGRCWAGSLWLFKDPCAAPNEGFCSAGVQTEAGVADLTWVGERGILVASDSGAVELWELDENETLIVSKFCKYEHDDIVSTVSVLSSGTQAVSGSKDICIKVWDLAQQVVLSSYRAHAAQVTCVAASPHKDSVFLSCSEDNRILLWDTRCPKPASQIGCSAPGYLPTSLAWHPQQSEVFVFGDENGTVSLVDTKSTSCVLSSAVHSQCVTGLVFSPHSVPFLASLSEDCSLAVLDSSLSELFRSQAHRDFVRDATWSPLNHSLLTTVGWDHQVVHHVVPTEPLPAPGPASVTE
Text: Table 1 indicates IC50 values (μM) against PRMT5 for exemplary compounds in the presence of SAM as cofactor, with no cofactor, and with MTA as cofactor, respectively (columns 4-6). […] Ki values can be calculated from the IC50 values as described in the Examples section. As detailed in the Examples section, for the assay performed in the presence of SAM, IC50=Ki×1.5 (Ki=IC50/1.5).

PRMT5 [3] = biological target: T1, PRMT5; experiment: PRMT5 biochemical IC50 assay with SAM as cofactor; details: PRMT5, SAM as cofactor; read-out: SAM IC50
PRMT5 [4] = biological target: T1, PRMT5; experiment: PRMT5 biochemical IC50 assay with MTA as cofactor; details: PRMT5, MTA as cofactor; read-out: MTA IC50
[5] = test system: HAP1 MTAP-deleted cell line; experiment: Viability assay, MTAP-deleted cell line; format: cell-based
Text: Table 1 additionally indicates IC50 values in a viability assay for the MTAP-deleted cell line (column 10), indicating the effect of treatment with compound on cell survival.

[6] = test system: HAP1 MTAP-intact cell line; experiment: SDMA in-cell western assay, HAP1 MTAP-intact; format: cell-based
How it was run: as §1

[7] = Homo sapiens, HAP1, SDMA in-cell western, HAP1 MTAP-deleted, read-out: HAP1 MTAP deleted IC50
[8] = Homo sapiens, HAP1, SDMA in-cell western, HAP1 MTAP-intact, read-out: MTAP HAP1 intact IC50
[9] = Homo sapiens, HAP1, viability assay, MTAP-deleted cell line, read-out: HAP1 MTAP deleted viability
[10] = Homo sapiens, HAP1, read-out: HAP1 MTAP deleted IC50
[11] = Homo sapiens, HAP1, read-out: HAP1 MTAP deleted viability
[12] = Homo sapiens, HAP1, read-out: MTAP HAP1 intact IC50

IC50 [1, 7] [nM]	IC50 (PRMT5 [2]) [nM]	IC50 (PRMT5 [3]) [nM]	IC50 (PRMT5 [4]) [nM]	IC50 [6, 8] [nM]	IC50 ([1]; SDMA in-cell western, HAP1 MTAP-deleted, read-out: HAP1 MTAP deleted IC50) [nM]	IC50 ([6]; SDMA in-cell western, HAP1 MTAP-intact, read-out: MTAP HAP1 intact IC50) [nM]	SMILES	MTAP intact/deleted ratio ([1]; SDMA in-cell western)	IC50 ([5]; viability assay, MTAP-deleted cell line, read-out: HAP1 MTAP deleted viability) [nM]	IC50 [5, 9] [nM]	IC50 [1, 10] [nM]	IC50 [5, 11] [nM]	IC50 [6, 12] [nM]
< 100	50 to 500	50 to 500	< 50	> 1000			CNc1cccc([C@@H]2CCCCN2C(=O)C(=O)Nc2cncc(C(N)=O)c2)c1 (single isomer, unassigned) [Compound 334]	A (an IC50 ratio greater than or equal to 10 fold)		1000 to 10000			
< 100	50 to 500	50 to 500	< 50	> 1000			Cc1cc([C@@H]2CC[C@@H](C)CN2C(=O)C(=O)Nc2cncc(C(N)=O)c2)cc(C)c1O (single isomer, unassigned) [Compound 335]	A (an IC50 ratio greater than or equal to 10 fold)		1000 to 10000			
100 to 1000	50 to 500	50 to 500	< 50	> 1000			Cc1cc(NC(=O)C(=O)N2C[C@H](C)C[C@@H](C)[C@H]2c2ccccc2)cnc1N (single isomer, unassigned) [Compound 339]	A (an IC50 ratio greater than or equal to 10 fold)		> 10000			
100 to 1000	50 to 500	50 to 500	< 50	> 1000			Cc1cc(NC(=O)C(=O)N2CCCC[C@H]2C2CCCC2)cnc1N (single isomer, unassigned) [Compound 340]	A (an IC50 ratio greater than or equal to 10 fold)		1000 to 10000			
100 to 1000	50 to 500	50 to 500	< 50	> 1000			C[C@@H]1CC[C@@H](c2ccc3c(c2)C[C@H](C)O3)N(C(=O)C(=O)Nc2cncc(C(N)=O)c2)C1 (single isomer, unassigned) [Compound 345]	A (an IC50 ratio greater than or equal to 10 fold)		1000 to 10000			
100 to 1000	50 to 500	50 to 500	< 50	> 1000			CC(=O)N1CCC(c2cccc([C@@H]3CC[C@@H](C)CN3C(=O)C(=O)Nc3cncc(C(N)=O)c3)c2)CC1 (single isomer, unassigned) [Compound 346]	A (an IC50 ratio greater than or equal to 10 fold)		1000 to 10000			
	50 to 500	50 to 500	< 50		100 to 1000	> 1000	COc1ncc(NC(=O)C(=O)N2CCCCC2C2CCCCC2)cc1C(N)=O (single isomer, unassigned) [Compound 347, 5-(2-(2-cyclohexylpiperidin-1-yl)-2-oxoacetamido)-2-methoxynicotinamide]	A (an IC50 ratio greater than or equal to 10 fold)		1000 to 10000			
< 100	50 to 500	50 to 500	< 50	> 1000			CNc1cccc([C@@H]2CC[C@@H](C)CN2C(=O)C(=O)Nc2cncc(C(N)=O)c2)c1 (single isomer, unassigned) [Compound 348]	A (an IC50 ratio greater than or equal to 10 fold)		1000 to 10000			
> 1000	50 to 500	50 to 500	< 50	> 1000			C[C@H]1CC[C@H](c2ccc(O)nc2)N(C(=O)C(=O)Nc2cncc(C(N)=O)c2)C1 (single isomer, unassigned) [Compound 350]	C (an IC50 ratio of less than 3 fold)		> 10000			

The next lines start with the molecule.

SMILES	IC50 [1, 7] [nM]	IC50 (PRMT5 [2]) [nM]	IC50 (PRMT5 [3]) [nM]	IC50 (PRMT5 [4]) [nM]	IC50 [6, 8] [nM]	IC50 ([1]; SDMA in-cell western, HAP1 MTAP-deleted, read-out: HAP1 MTAP deleted IC50) [nM]	IC50 ([6]; SDMA in-cell western, HAP1 MTAP-intact, read-out: MTAP HAP1 intact IC50) [nM]	MTAP intact/deleted ratio ([1]; SDMA in-cell western)	IC50 ([5]; viability assay, MTAP-deleted cell line, read-out: HAP1 MTAP deleted viability) [nM]	IC50 [5, 9] [nM]	IC50 [1, 10] [nM]	IC50 [5, 11] [nM]	IC50 [6, 12] [nM]
COc1ncc(NC(=O)C(=O)N2CCCCC2C2CCCC2)cc1C(N)=O (single isomer, unassigned) [Compound 294, 5-(2-(2-cyclopentylpiperidin-1-yl)-2-oxoacetamido)-2-methoxynicotinamide]	< 100	50 to 500	50 to 500	< 50	> 1000			A (an IC50 ratio greater than or equal to 10 fold)	1000 to 10000				
Cc1cc(NC(=O)C(=O)N2C[C@H](C)CC[C@H]2c2cccnc2)cnc1N (single isomer, unassigned) [Compound 301]	< 100	50 to 500	50 to 500	< 50	100 to 1000			B (an IC50 ratio greater than or equal to 3 fold but lower than 10 fold)		1000 to 10000			
COc1ncc(NC(=O)C(=O)N2C[C@@H](C)CC[C@@H]2c2cccs2)cc1C(N)=O (single isomer, unassigned) [Compound 303]	< 100	< 50	50 to 500	< 50	> 1000			A (an IC50 ratio greater than or equal to 10 fold)		< 1000			
COc1ncc(NC(=O)C(=O)N2C[C@H](C)CC[C@H]2C2CCCC2)cc1C(N)=O (single isomer, unassigned) [Compound 306]	< 100	50 to 500	50 to 500	< 50	> 1000			A (an IC50 ratio greater than or equal to 10 fold)		1000 to 10000			
COc1ncc(NC(=O)C(=O)N2C[C@H](C)CC[C@@H]2c2ccccc2)cc1C(N)=O (single isomer, unassigned) [Compound 308]		> 500	50 to 500	< 50				A (an IC50 ratio greater than or equal to 10 fold)			100 to 1000	> 10000	> 1000
C[C@@H]1C[C@H](C)[C@@H](c2ccccc2)N(C(=O)C(=O)Nc2cncc(C(N)=O)c2)C1 (single isomer, unassigned) [Compound 311, 5-(2-(3,5-dimethyl-2-phenylpiperidin-1-yl)-2-oxoacetamido)nicotinamide]	100 to 1000	50 to 500	50 to 500	< 50	> 1000			A (an IC50 ratio greater than or equal to 10 fold)		> 10000			
Cc1cc(NC(=O)C(=O)N2C[C@@H](C)[C@H](C)C[C@H]2c2ccccc2)cnc1N (single isomer, unassigned) [Compound 313]	< 100	50 to 500	50 to 500	< 50	> 1000			A (an IC50 ratio greater than or equal to 10 fold)		1000 to 10000			
C[C@H]1CC[C@H](C2CCC(F)(F)CC2)N(C(=O)C(=O)Nc2cncc(C(N)=O)c2)C1 (single isomer, unassigned) [Compound 320]	> 1000	> 500	50 to 500	50 to 500	> 1000			B (an IC50 ratio greater than or equal to 3 fold but lower than 10 fold)		> 10000			
Cc1cc([C@@H]2CC[C@@H](C)CN2C(=O)C(=O)Nc2cncc(C(N)=O)c2)ccc1O (single isomer, unassigned) [Compound 323]	< 100	< 50	50 to 500	< 50	100 to 1000			A (an IC50 ratio greater than or equal to 10 fold)		< 1000			
CC(=O)N1CCC(c2cccc([C@H]3CC[C@H](C)CN3C(=O)C(=O)Nc3cnc(N)c(C)c3)c2)CC1 (single isomer, unassigned) [Compound 324]	< 100	< 50	50 to 500	< 50	100 to 1000			A (an IC50 ratio greater than or equal to 10 fold)		< 1000			
C[C@@H]1CC[C@@H](c2ccc3c(c2)C[C@@H](C)O3)N(C(=O)C(=O)Nc2cncc(C(N)=O)c2)C1 (single isomer, unassigned) [Compound 329]	< 100	50 to 500	50 to 500	< 50	> 1000			A (an IC50 ratio greater than or equal to 10 fold)		1000 to 10000			
COc1ncc(NC(=O)C(=O)N2C[C@H](C)CC[C@H]2c2ccccc2)cc1C(N)=O (single isomer, unassigned) [Compound 333]		< 50	50 to 500	< 50				A (an IC50 ratio greater than or equal to 10 fold)			< 100	< 1000	> 1000
